In one series the test system is pancreatin. In words: Pancreatin stability. The class given is in vitro ADME, porcine. The conditions noted are these: gabapentin (2) released by 1% (w/v) pancreatin; prodrug 5 μM; pH 7.5; 37° C.; 60 min. How it is done: Pancreatin Stability: Stability studies were conducted by incubating prodrug (5 μM) with 1% (w/v) pancreatin (Sigma, P-1625, from porcine pancreas) in 0.025 M Tris buffer containing 0.5 M NaCl (pH 7.5) at 37° C. for 60 min. The reaction was stopped by addition of 2 volumes of methanol. After centrifugation at 14,000 rpm for 10 min, the supernatant was removed and analyzed by LC/MS/MS.

A further series addresses T1, LBAT (Homo sapiens, UniProt Q14973).
T1 construct: expressed in transfected cells; host or cells: CHO cells
In words: Inhibition of radiolabeled taurocholate uptake in LBAT-transfected CHO cells. The class given is cell-based. The conditions noted are these: radiolabeled competition assay in transporter-expressing CHO cells. How it is done:
(§1) CHO cells transfected with either the IBAT or LBAT transporter were seeded into 96-well microtiter plates at 100,000 cells/well in 100 μL DMEM containing 10% serum, glutamine and Penstrep. After overnight incubation the media was removed and test compound (25 μL) added at 2× the final desired concentration. Tritiated taurocholate (50,000 CPM/well) was diluted with cold substrate to a final concentration of 5 μM and 25 μL/well of this mixture was added to the plate. After incubating for 1 h at room temperature the solution was removed and the plate washed 4× with PBS at 4° C. 200 μL/well of scintillant is added and the plate then read in a Wallac microbeta counter. The inhibition data is processed by standard methods to calculate an inhibition constant Ki for the test compound.

Series [1] has as its target T2, IBAT (Homo sapiens, UniProt Q12908). In words: Electrogenic transport in Xenopus oocytes expressing IBAT. The class given is cell-based. The conditions noted are these: relative to glycodeoxycholate. The source says: RNA preparation: Human IBAT and LBAT Transporter cDNAs were subcloned into a modified pGEM plasmid that contains 5′ and 3′ untranslated sequences from the Xenopus β-actin gene. These sequences increase RNA stability and protein expression. Plasmid cDNA was linearized and used as template for in vitro transcription (Epicentre Technologies transcription kit, 4:1 methylated:non-methylated GTP).
Xenopus oocyte isolation. Xenopus laevis frogs were anesthetized by immersion in Tricaine ([…] in deionized water) for 15 min. Oocytes were removed and digested in frog ringer solution (90 mM NaCl, 2 mM KCl, 1 mM MgCl2, 10 mM NaHEPES, pH 7.45, no CaCl2) with 1 mg/mL collagenase (Worthington Type 3) for 80-100 min with shaking. The oocytes were washed 6 times, and the buffer changed to frog ringer solution containing CaCl2 (1.8 mM). Remaining follicle cells were removed if necessary. Cells were incubated at 16° C., and each oocyte injected with […] RNA in […] solution.
Electrophysiology measurements. Transport currents were measured 2-14 days after injection, using a standard two-electrode electrophysiology set-up (Geneclamp 500 amplifier, Digidata 1320/PCLAMP software and ADInstruments hardware and software were used for signal acquisition). Electrodes ([…]) were microfabricated using a Sutter Instrument puller and filled with 3M KCl. The bath was directly grounded (transporter currents were less than 0.3 μA). Bath flow was controlled by an automated perfusion system (ALA Scientific Instruments, solenoid valves).
For transporter pharmacology, oocytes were clamped at −60 to −90 mV, and continuous current measurements acquired using PowerLab Software and an ADInstruments digitizer. Current signals were lowpass filtered at 20 Hz and acquired at 4-8 Hz. All bath and drug-containing solutions were frog ringers solution containing CaCl2. Drugs were applied for 10-30 seconds until the induced current reached a new steady-state level, followed by a control solution until baseline currents returned to levels that preceded drug application. The difference current (baseline subtracted from peak current during drug application) reflected the net movement of charge resulting from electrogenic transport and was directly proportional to tranport rate. Recordings were made from a single oocyte for up to 60 min, enabling 30-40 separate compounds to be tested per oocyte. […]. Using this normalization procedure Vmax (i.e. maximal induced current) for different compounds tested on different oocytes could be compared.

Series [2] concerns the target T2, IBAT. The experiment in a line: Inhibition of radiolabeled taurocholate uptake in IBAT-transfected CHO cells. Conditions: radiolabeled competition assay in transporter-expressing CHO cells. Also on record: expressed in transfected cells; host or cells: CHO cells. Type of series: cell-based. The protocol: as §1
The nature of series [3]: Pharmacokinetics of N-phthaloylglycine prodrug (61) in rats (Example 42). The class given is in vivo, rat. Conditions: oral (61) 240 mg/kg, post dosing. How it is done: The pharmacokinetics of the N-phthaloylglycine prodrug (61) is examined in rats. […] Serial blood samples are obtained over 24 hours following dosing and blood is processed for plasma by centrifugation. Plasma samples are stored at −80° C. until analyzed. Concentrations of N-phthaloylglycine or (61) in plasma samples are determined by LC/MS/MS.

A short description of series [4]: In vitro enzymatic release in rat plasma. Conditions: substrate 2.0 μM, no cofactors, 37° C.
Series [5] is described as follows: In vitro enzymatic release in human liver S9. The conditions noted are these: Human Liver S9 (0.5 mg/mL); substrate 2.0 μM; NADPH; 37° C.
The target of a further series is T3, Aminopeptidase 1 (Streptomyces griseus subsp. griseus, UniProt P80561).
T3 construct: purchased Sigma A-9934
The experiment in a line: Aminopeptidase stability. The class given is in vitro ADME. The conditions noted are these: substrate 5.0 μM, no cofactors, pH 8.0, 37° C. How it is done:
Aminopeptidase Stability: Aminopeptidase 1 (Sigma catalog # A-9934) was diluted in deionised water to a concentration of 856 units/mL. Stability studies were conducted by incubating prodrug (5 μM) with 0.856 units/mL aminopeptidase 1 in 50 mM Tris-HCl buffer at pH 8.0 and 37° C. Concentrations of intact prodrug and released drug were determined at zero time and 60 minutes using LC/MS/MS.
Concentrations of (2), (4), (7g) or Phe-Gabapentin in tissue extracts were determined by direct injection onto an API 2000 LC/MS/MS equipped with an Agilent 1100 binary pump and autosampler. Separation was achieved using a 3.5 μm Zorbax Ellipse XDB-C8 4.4×150 mm column heated to 45° C. during the analysis. The mobile phases were: 0.1% formic acid in water (A) and 0.1% formic acid in acetonitrile (B). The gradient condition was: 2% B for 0.5 min, increasing to 90% B in 2.0 min, maintained for 2.5 min and returning to 2% B for 2 min. A TurbolonSpray source was used on the API 2000. The analysis was performed in the positive ion mode and MRM transitions of 709.5/172.1 and 172.0/137.2 were used in the analysis of Cholyl-Phe-Gabapentin (7g) and gabapentin (2) respectively. Ten microliters of the sample extracts were injected. Peaks were integrated using Analyst quantitation software. The method was linear for (7g) or (2) over the concentration range 0.01 to 12.5 μg/mL and 0.002 to 2.5 μg/mL respectively.

The nature of series [6]: Caco-2 homogenate S9 stability. The class given is in vitro ADME. The conditions noted are these: substrate 5.0 μM, no cofactors, 37° C. How it is done: Caco-2 Homogenate S9 Stability. Caco-2 cells were grown for 21 days prior to harvesting. Culture medium was removed and cell monolayers were rinsed and scraped off into ice-cold 10 mM sodium phosphate/0.15 M potassium chloride, pH 7.4. Cells were lysed by sonication at 4° C. using a probe sonicator. Lysed cells were then transferred into 1.5 mL centrifuge vials and centrifuged at 9000 g for 20 min at 4° C. The resulting supernatant (Caco-2 cell homogenate S9 fraction) was aliquoted into 0.5 mL vials and stored at −80° C. until used.
For stability studies, prodrug (5 μM) was incubated in Caco-2 homogenate S9 fraction (0.5 mg protein per mL) for 60 min at 37° C. Concentrations of intact prodrug and released drug were determined at zero time and 60 minutes using LC/MS/MS.
Concentrations of (2), (4), (7g) or Phe-Gabapentin in tissue extracts were determined by direct injection onto an API 2000 LC/MS/MS equipped with an Agilent 1100 binary pump and autosampler. Separation was achieved using a 3.5 μm Zorbax Ellipse XDB-C8 4.4×150 mm column heated to 45° C. during the analysis. The mobile phases were: 0.1% formic acid in water (A) and 0.1% formic acid in acetonitrile (B). The gradient condition was: 2% B for 0.5 min, increasing to 90% B in 2.0 min, maintained for 2.5 min and returning to 2% B for 2 min. […] Peaks were integrated using Analyst quantitation software. […]

Series [7] can be described thus: In vitro enzymatic release in rat liver S9. The conditions noted are these: Rat Liver S9 (0.5 mg/mL); substrate 2.0 μM; NADPH; 37° C.
A short description of series [8]: In vitro enzymatic release in human intestine S9. The conditions noted are these: Human Intestine S9 (0.5 mg/mL); substrate 2.0 μM; NADPH; 37° C.
A short description of series [9]: In vitro enzymatic release in human plasma. Conditions: substrate 2.0 μM, no cofactors, 37° C.
The conditions of series [10]: in rats; Salach et al, Pharm. Res. 1994; cited from earlier work.

T2 sequence (Q12908 whole entry): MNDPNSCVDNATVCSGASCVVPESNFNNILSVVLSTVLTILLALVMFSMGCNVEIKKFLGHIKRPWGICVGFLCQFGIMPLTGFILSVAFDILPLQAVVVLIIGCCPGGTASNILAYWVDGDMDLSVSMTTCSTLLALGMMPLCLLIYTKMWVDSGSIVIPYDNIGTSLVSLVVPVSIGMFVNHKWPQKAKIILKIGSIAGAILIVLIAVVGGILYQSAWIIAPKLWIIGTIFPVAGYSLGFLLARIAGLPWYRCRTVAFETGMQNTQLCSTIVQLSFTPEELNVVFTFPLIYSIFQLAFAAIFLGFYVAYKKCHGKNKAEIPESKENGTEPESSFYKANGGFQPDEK
T1 sequence (Q14973 whole entry): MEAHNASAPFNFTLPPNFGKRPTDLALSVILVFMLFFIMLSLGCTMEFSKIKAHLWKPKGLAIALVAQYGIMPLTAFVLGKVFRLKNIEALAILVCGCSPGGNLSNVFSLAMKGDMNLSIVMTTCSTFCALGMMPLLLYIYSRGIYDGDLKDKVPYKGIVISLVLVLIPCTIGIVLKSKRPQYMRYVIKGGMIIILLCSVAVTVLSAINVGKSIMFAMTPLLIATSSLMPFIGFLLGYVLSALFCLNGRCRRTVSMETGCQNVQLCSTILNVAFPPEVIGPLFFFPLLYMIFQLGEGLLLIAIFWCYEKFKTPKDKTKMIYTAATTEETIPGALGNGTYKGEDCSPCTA
T3 sequence (P80561 46-329): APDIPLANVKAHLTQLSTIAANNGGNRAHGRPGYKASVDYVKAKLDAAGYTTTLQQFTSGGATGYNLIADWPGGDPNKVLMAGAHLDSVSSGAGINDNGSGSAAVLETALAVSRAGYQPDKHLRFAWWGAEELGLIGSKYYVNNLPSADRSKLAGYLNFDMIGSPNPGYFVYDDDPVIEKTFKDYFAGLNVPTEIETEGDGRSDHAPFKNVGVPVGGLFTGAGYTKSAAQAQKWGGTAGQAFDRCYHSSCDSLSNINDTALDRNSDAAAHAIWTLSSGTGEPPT

Consider `CC(CCC(=O)NC(Cc1ccc(O)cc1)C(=O)NCC1(CC(=O)O)CCCCC1)C1CCC2C3C(O)CC4CC(O)CCC4(C)C3CC(O)C12C` (centres unmarked) [(7h), Cholyl-Tyr-Gabapentin], for which, in the series with pancreatin, the “% (2) Released” value worked out at 40%.
On to `C[C@H](CCC(=O)N[C@@H](Cc1ccc2oc(=O)oc2c1)C(=O)O)[C@H]1CC[C@H]2[C@@H]3[C@H](O)C[C@@H]4C[C@H](O)CC[C@]4(C)[C@H]3C[C@H](O)[C@]12C` [(23), Cholyl-Dopa-(3,4-carbonate)], for which the IC50 at LBAT stood at 1.8 µM; at IBAT [2], 74 µM. At IBAT [1], the “% Max. (GDC)” value was determined as 25%.
With `N[C@@H](CCC(=O)O)C(=O)N[C@@H](CSC(=O)CN1C(=O)c2ccccc2C1=O)C(=O)NCC(=O)O` [Compound (61), H-Glu-Cys(N-phthaloylglycyl)-Gly-OH], the “time at which liberated N-phthaloylglycine is apparent in plasma” value in series [3] is given as at most 30 min.
As for `NC(Cc1ccccc1)C(=O)NCC1(CC(=O)O)CCCCC1` (centres unmarked) [Phe-Gabapentin], the “Percent of Gabapentin Released in 60 min” value in series [4] is recorded as 19%; in [5], 1%; at Aminopeptidase 1, 24%; in [6], 21%; in [7], 1%; in [8], 5%.
Take “Cholyl-Dopa-(4-pivaloyloxymethyl) [(21)]”: the “Percent of (20) Released in 60 min” value in series [4] was 75%; in [5], 70%; in series [9], 90%; in [7] it was 35%; in [8], 95%. Also, the figures for the IC50 at LBAT and at IBAT [2] were 0.2 µM and 91 µM, respectively. Moreover, the “% Max. (GDC)” value on IBAT [1] stood at 104%.
For the compound N-Phthaloylglycine, the half-life in series [10] was around 10 min.

For orientation: IC50 means the midpoint of a concentration-inhibition curve. Higher therefore signals weaker potency. What is called half-life is the time in which the quantity being followed falls by half.

(Values after US20050054559A1, “Compounds for sustained release of orally delivered drugs” (priority 2000, published 2005).)
